We go through one molecule from paper PMC8478281, “Targeting the FtsZ Allosteric Binding Site with a Novel Fluorescence Polarization Screen, Cytological and Structural Approaches for Antibacterial Discovery” (Journal of Medicinal Chemistry, 2021).

By Kd is commonly meant the free concentration of one partner at which half of the binding sites on the other are occupied at equilibrium, for simple one-to-one binding.

Assay [1] has as its target T1, glutaraldehyde-stabilized FtsZ polymers (Bacillus subtilis, UniProt P17865).
T1 construct: made in house
As to the kind of experiment: Stoichiometry of probe binding by polymer pelleting (centrifugation assay). The protocol: The stoichiometry of binding of (R)-5 to stabilized FtsZ polymers was measured using a centrifugation assay adapted from ref ([49]). Then, FtsZ polymers (10 μM) were incubated at 25 °C in HEPES buffer, 10 mM MgCl2, 2% DMSO, and 0.1 mM GMPCPP at 25 °C in the presence of different probe concentrations, in a final volume of 0.1 mL. The samples were then centrifuged for 20 min at 100 000 rpm and 25 °C in a TLA-100 rotor. After centrifugation, the supernatant was carefully withdrawn and the pellets were resuspended in the same volume of buffer. The concentration of the free probe was determined spectrophotometrically in the supernatant, employing an extinction coefficient ε483 = 25 400 M^–1 cm^–1 for (R)-5 and the concentration of probe bound to FtsZ was calculated as the difference of the known total concentration of probe minus the free concentration. To calculate the FtsZ polymer concentration, 5 μL of the resuspended pellet was applied to sodium dodecyl sulfate (SDS)-12% polyacrylamide gels, stained with Coomassie blue, scanned with a CS-800 calibrated densitometer (BioRad), and the protein bands quantified using Quantity One software (BioRad).

A further assay deals with B. subtilis. As to the kind of experiment: Minimal growth inhibitory concentration (broth macrodilution), B. subtilis. Type of assay: cell-based, Bacillus subtilis. Conditions: Table S1, fluorescent probes. The essentials:
(§1)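 Strains grown in cation-adjusted Mueller–Hinton broth at 37 °C (B. subtilis SU570 at 30 °C) to A600 0.1–0.2, then exposed to compounds or DMSO. MIC by broth macrodilution; division phenotype assessed by microscopy and cell measurement.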

A further assay addresses T2, BsFtsZ (Bacillus subtilis, UniProt P17865).
T2 construct: made in house
The experiment in a line: Fluorescence anisotropy of probes after consecutive additions of FtsZ, GMPCPP, MgCl2 and PC190723. Format: binding. The procedure: (A) Fluorescence anisotropy values of the free probes (10 μM) in buffer, to which FtsZ (10 μM, unassembled) was added, followed by the slowly hydrolyzable GTP analogue GMPCPP (0.1 mM). BsFtsZ polymerization was then induced by the addition of MgCl2 (10 mM) and anisotropy values were recorded 5–10 min later. Nonfluorescent PC190723 (10 μM) was subsequently added to displace the fluorescent probe and anisotropy was measured 5 min later. (B) Fluorescence microscopy images of B. subtilis cells treated for 1.5 h with the minimal division inhibitory concentrations (MDC) of (S)-2 and each enantiomer of 5 (Table S1), acquired employing the probe fluorescence.
(§2) FtsZ from B. subtilis (BsFtsZ) was prepared as described previously.[35] FtsZ was assembled in 50 mM N-(2-hydroxyethyl)piperazine-N′-ethanesulfonic acid (HEPES)-KOH, 50 mM KCl, 1 mM ethylenediaminetetraacetic acid (EDTA), pH 6.8 (HEPES buffer) plus 10 mM MgCl2, and 1 mM GTP or 0.1 mM GMPCPP at 25 °C. FtsZ assembly was monitored by light scattering.[34]
(In general: Fluorescence polarisation rises when a labelled molecule tumbles more slowly, as on binding a larger partner.)

The next assay deals with S. aureus Mu50. As to the kind of experiment: Minimal growth inhibitory concentration (broth macrodilution), S. aureus Mu50. Format: cell-based, Staphylococcus aureus. The essentials:
as §1

The target in assay [2] is T3, FtsZ-GMPCPP polymers (BsFtsZ) (Bacillus subtilis, UniProt P17865).
T3 construct: made in house
The experiment in a line: Binding titration of the fluorescent probes to FtsZ polymers by fluorescence anisotropy. The procedure: as §2
The fluorescence spectra and anisotropy values of the different probes were acquired with a Fluoromax-4 (Horiba Jobin Yvon) photon-counting L-format spectrofluorometer using 2 mm × 10 mm cells at 25 °C, employing the maximum excitation and emission wavelength for each probe with 2 and 5 nm bandwidths, respectively. Anisotropy values were automatically measured as r = (Ivv – G Ivh)/(Ivv + 2G Ivh), where the subscripts refer to the vertical (v) or horizontal (h) positions of the excitation (first subscript) and emission (second subscript) polarizers, and G = Ihv/Ihh. Total intensity values were simultaneously determined as IT = Ivv +2G Ivh. Note that measurement correction procedures with T-format (double channel) fluorometers and with plate readers are slightly different.
FtsZ (10–15 μM) was assembled in HEPES buffer, 10 mM MgCl2, 50 μM GMPCPP at 25 °C for 10 min, and then 0.15% (v/v) glutaraldehyde[36] (distilled grade for microscopy, TAAB Laboratories, U.K.) was added to the solution that was incubated at 25 °C for 10 min more. (This was the minimal glutaraldehyde concentration determined to stabilize FtsZ polymers specifically binding probe 1.) The remains of the cross-linking agent were quenched by adding 60 mM NaBH4, the sample was incubated on ice for 10 min and degassed.[36] Cross-linked polymers were centrifuged for 10 min at 8200g (5000 rpm) and 4 °C in 15 mL Falcon tubes employing a Rotina 380R (Hettich) centrifuge, the supernatant was removed and the pellet was resuspended in the same volume of HEPES buffer, 10 mM MgCl2, containing 5 μM GMPCPP. Fixed FtsZ polymers were active in binding assays after more than 2 days at 4 °C; they could also be frozen in liquid nitrogen with a small loss of binding capacity. […] Cross-linked polymers of SaFtsZ were similarly prepared.
Binding affinity of the probes to FtsZ was measured by an increase in anisotropy of the probe (adapted from ref ([49])). Fixed concentrations of the probes (3 μM) were titrated with different FtsZ polymer concentrations (0–40 μM) in HEPES buffer with Mg^2+, to obtain the anisotropy increment, Δrmax, corresponding to the bound probe. The increase in anisotropy was plotted against the FtsZ polymer concentration (calculated by subtracting from the total protein concentration the critical concentration for polymerization under the same conditions) and iteratively least-squares fitted with an isotherm of binding to one site. The estimated values of Δrmax were used to approximate the free FtsZ concentrations, and these new values were employed again until an unchanging Δrmax value was obtained. The convergent data were used to calculate the binding constant of the fluorescent probe to FtsZ polymers (Table S1).

The mark [3] stands for this setting: FtsZ-GMPCPP polymers, best fit values from binding titrations.
Setting [4] is: binding to stabilized FtsZ polymers.

≈ marks a conversion by molar mass, not a printed value.

T3 sequence (P17865 whole entry): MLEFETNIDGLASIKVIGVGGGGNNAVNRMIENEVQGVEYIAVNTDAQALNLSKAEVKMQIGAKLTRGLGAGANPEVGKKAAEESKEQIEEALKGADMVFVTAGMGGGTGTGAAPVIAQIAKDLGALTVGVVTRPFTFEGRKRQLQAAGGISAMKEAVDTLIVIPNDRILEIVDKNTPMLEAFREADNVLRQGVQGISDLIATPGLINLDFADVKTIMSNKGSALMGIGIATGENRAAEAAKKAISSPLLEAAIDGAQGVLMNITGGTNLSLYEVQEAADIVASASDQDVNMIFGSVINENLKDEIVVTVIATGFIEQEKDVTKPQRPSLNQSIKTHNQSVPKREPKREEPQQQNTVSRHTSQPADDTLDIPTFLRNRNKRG
T2 sequence (P17865 whole entry): as above
T1 sequence (P17865 whole entry): as above

Consider `CCC[C@H](COc1ccc(F)c(C(N)=O)c1F)Nc1ccc([N+](=O)[O-])c2nonc12` [(R)-5], for which, in assay [1], the “stoichiometry of probe binding” value is 0.6 molecules per FtsZ monomer. In the assay on B. subtilis, this molecule showed an MIC B. subtilis of 25 µM (≈ 10.5 µg/mL). At BsFtsZ (data from Fig. 5A), the “Fluorescence anisotropy (r): + PC190723” value amounted to 0.052. Further, the “Fluorescence anisotropy (r): free probe” value at BsFtsZ (probe 10 μM in buffer) amounted to 0.029. For the same molecule, the “Fluorescence anisotropy (r): + FtsZ (unassbld.)” value on BsFtsZ (probe 10 μM, FtsZ 10 μM) was 0.041. For the same molecule, on BsFtsZ (probe 10 μM, FtsZ 10 μM, GMPCPP 0.1 mM), the “Fluorescence anisotropy (r): + GMPCPP” value was 0.040. Moreover, at BsFtsZ (probe 10 μM, FtsZ 10 μM, GMPCPP 0.1 mM, MgCl2 10 mM, 5–10 min), the “Fluorescence anisotropy (r): + MgCl2 (polymer)” value was 0.227. In addition, the “effect on growth of S. aureus Mu50, in words” value with S. aureus Mu50 (250 µM) is recorded as “partially inhibited growth”. The MIC S. aureus Mu50 in the assay with S. aureus Mu50 (Table S1, fluorescent probes) was greater than 250 µM. Further, in assay [2] (setting [3]), the Imax/Imin is reported as 6.2, the “rmax (all probe bound)” value is recorded as 0.272, the “rmin (free probe)” value is recorded as 0.029 and the dissociation constant Kd is 1.9 ± 0.6 µM. Besides, in assay [2] (setting [4]), the Kd was determined as 2 ± 0.5 µM, the Imax/Imin came out at 5.0, the “rmax (all probe bound)” value stood at 0.268 and the “rmin (free probe)” value is given as 0.029.
